Laboratory results reported in patent publication US4761478A, “3-deazaguanine sulfonic acid salts” (Warner-Lambert Company, priority 1986, dated 1988).
“Also recorded” adds a separate entry of the source. Counter-ions that a name gives are not always drawn. Like-named read-outs stand apart in the source and are kept apart here.

How the values were obtained:
[1] = trimetrexate acid addition salts in water; data from U.S. Pat. No. 4,376,858; cited from earlier work
[2] = Water solubility of 3-deazaguanine and its acid addition salts (Table I); format: physicochemical; settings: for Solubility: 3-deazaguanine salts in water; for water solubility (in words) / ml Water Needed to Dissolve: 3-deazaguanine salts; for ml Water Needed to Dissolve: 250 mg 3-deazaguanine plus one equivalent weight of the acid, water added until complete solution
Experimental: The common acids employed for the formulation of acid addition salts of pharmaceutical bases are listed in J. Pharm. […] The solubility values presented in Table I were determined as follows: 3-deazaguanine (250 mg) was suspended in a small volume of water and one equivalent weight of the acid was added with stirring. Stirring was continued and small volumes of water were added intermittently until complet solution was obtained.

[3] = Solubility of trimetrexate acid addition salts in water (Table II); format: physicochemical; settings: decreasing order of solubility
[4] = Aqueous solution of 3-deazaguanine methanesulfonate salt remaining clear and free of precipitate; format: physicochemical; settings: in water
Experimental: To a slurry of 24.5 g of 6-amino-1,5-dihydro-4H-imidazo-[4,5-c]pyridin-4-one (3-deazaguanine) in 250 ml of methyl alcohol was added a solution of 17.0 g of methanesulfonic acid in 50 ml of methyl alcohol. The mixture was stirred at room temperature for about 10 minutes, filtered, and the filter cake washed with methyl alcohol to give, after drying, 35.5 g (88%) of 3-deazaguanine methanesulfonate salt, mp 273°-275° C. This material produced a solution in water at a concentration of 41 mg/ml which remained clear and free of any precipitate for more than three days.

[5] = Relative solubility of m-AMSA acid addition salts (Table III); format: physicochemical
[6] = Chemical stability of the sodium salt of 3-deazaguanine in aqueous solution; format: physicochemical; settings: aqueous solution of sodium salt of 3-deazaguanine

SMILES	Solubility [1]	Solubility [2]	ml Water Needed to Dissolve [2]	further results
COc1cc(NCc2ccc3nc(N)nc(N)c3c2C)cc(OC)c1OC [2-Naphthalenesulfonic]	150 µg/mL			
COc1cc(NCc2ccc3nc(N)nc(N)c3c2C)cc(OC)c1OC [Ethoxyacetic]	19500 µg/mL			
Nc1cc2nc[nH]c2c(=O)[nH]1 [H2 SO4]		800 to 1000 µg/mL	250 to 300 mL	water solubility (in words) ([2]; water, listed as sulfate): poorly soluble; water solubility (in words) ([2]; water, listed as sulfate salt): lower solubility; solubility relative to the corresponding free base ([2]; sulfate salt of 3-deazaguanine vs free base): about one-half
Nc1cc2nc[nH]c2c(=O)[nH]1 [H3 PO4]		1900 to 2100 µg/mL	120 to 130 mL	
Nc1cc2nc[nH]c2c(=O)[nH]1 [HCl]		3300 to 3800 µg/mL	65 to 75 mL	
Nc1cc2nc[nH]c2c(=O)[nH]1 [Maleic]		1600 to 1700 µg/mL	150 to 160 mL	
CS(=O)(=O)O.Nc1cc2nc[nH]c2c(=O)[nH]1 [Methanesulfonic, 3-deazaguanine methanesulfonate salt]	9830 µg/mL		5 mL	water solubility (in words) ([2]; water): solubility advantage; Solubility ([2]; water, read-out: Solubility): 50000 µg/mL; order of solubility among the trimetrexate salts tested [3]: sixth; time the solution remained clear and free of any precipitate ([4]; 41 mg/ml): more than three; Solubility ([4]; read-out: concentration of solution produced in water): 41000 µg/mL; solubility compared with other m-AMSA salts (in words) [5]: one of the least soluble salts
COc1cc(NCc2ccc3nc(N)nc(N)c3c2C)cc(OC)c1OC [p-Toluenesulfonic]	1730 µg/mL			
Nc1cc2nc[nH]c2c(=O)[nH]1 [sodium salt]				chemical stability in aqueous solution (in words) [6]: tend to begin to degrade within a few hours of formulation; also recorded: chemically unstable
